According to PMC8128165, “Effect of amino acids and amines on the activity of the recombinant ι-carbonic anhydrase from the Gram-negative bacterium Burkholderia territorii” (Journal of Enzyme Inhibition and Medicinal Chemistry, 2021):

Test system: BteCAι
Assay: stopped-flow CO2 hydration assay (activation)
Type: biochemical, Burkholderia territorii
Details: activation constant (not an association constant); CO2 substrate; 10 mM HEPES pH 7.5, 0.1 M NaClO4; 25 °C; activator
Source text: stopped-flow CO2 hydration assay (activation) on BteCAι

In order of rising “KA (μM)* / BteCAι^b” value:
1. NCCN1CCNCC1 [compound 17, 1-(2-Aminoethyl)-piperazine]  3.9 µM
2. N[C@@H](Cc1ccc(O)c(O)c1)C(=O)O [compound 5, L-DOPA]  4.3 µM
3. NC(=O)CC[C@H](N)C(=O)O [compound 24, L-Gln]  5.8 µM
4. NCCc1c[nH]cn1 [compound 12, Histamine]  6.0 µM
5. N[C@H](Cc1c[nH]c2ccccc12)C(=O)O [compound 8, D-Trp]  6.1 µM
6. N[C@H](Cc1c[nH]cn1)C(=O)O [compound 2, D-His]  6.2 µM
7. Nc1ccc(C[C@H](N)C(=O)O)cc1 [compound 11, 4-H2N-L-Phe]  6.9 µM
8. N[C@H](Cc1ccc(O)cc1)C(=O)O [compound 10, D-Tyr]  7.3 µM
9. N[C@@H](Cc1ccc(O)cc1)C(=O)O [compound 9, L-Tyr]  8.0 µM
10. N[C@@H](CC(=O)O)C(=O)O [compound 21, L-Asp]  8.4 µM
11. N[C@H](CCC(=O)O)C(=O)O [compound 23, D-Glu]  8.5 µM
12. N[C@@H](Cc1cnc[nH]1)C(=O)O [compound 1, L-His]  8.6 µM
13. NCCc1ccc(O)c(O)c1 [compound 13, Dopamine]  8.7 µM
14. N[C@H](Cc1ccccc1)C(=O)O [compound 4, D-Phe]  9.4 µM
15. CNC[C@H](O)c1ccc(O)c(O)c1 [compound 19, L-Adrenaline]  9.7 µM
16. N[C@@H](Cc1c[nH]c2ccccc12)C(=O)O [compound 7, L-Trp]  10.2 µM
17. N[C@H](Cc1ccc(O)c(O)c1)C(=O)O [compound 6, D-DOPA]  11.7 µM
18. NCCN1CCOCC1 [compound 18, 4-(2-Aminoethyl)-morpholine]  12.0 µM
19. NCCc1c[nH]c2ccc(O)cc12 [compound 14, Serotonin]  13.3 µM
